Publication PMC3700413 (Journal of medicinal chemistry, 2008)
Entries after “also recorded” stand apart in the source; their conditions may differ. Like-named read-outs stand apart in the source and are kept apart here.

Assays:
CB2 cannabinoid receptor [1] = target: T1, CB2 cannabinoid receptor (Mus musculus, UniProt P47936); experiment: Competitive [3H]CP55,940 binding assay, mouse spleen membranes; conditions: rCB1 versus mCB2 Ki values
CB2 cannabinoid receptor [2] = target: T1, CB2 cannabinoid receptor; conditions: earlier work on adamantyl substituents at C3 of Δ8-THC; cited from earlier work

T1 sequence (P47936 whole entry): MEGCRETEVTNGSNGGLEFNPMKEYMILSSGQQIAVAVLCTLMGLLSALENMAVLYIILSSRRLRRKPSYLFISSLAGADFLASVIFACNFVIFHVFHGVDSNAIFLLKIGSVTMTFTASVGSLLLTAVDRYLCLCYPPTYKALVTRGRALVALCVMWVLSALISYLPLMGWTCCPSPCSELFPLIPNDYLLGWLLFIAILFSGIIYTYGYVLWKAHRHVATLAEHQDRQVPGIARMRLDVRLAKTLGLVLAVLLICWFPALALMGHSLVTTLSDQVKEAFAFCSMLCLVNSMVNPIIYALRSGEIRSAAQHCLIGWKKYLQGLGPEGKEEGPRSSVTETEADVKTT

| Compound | CB1/CB2 receptor subtype selectivity (in words) (CB2 cannabinoid receptor [1]) | CB1/CB2 receptor subtype selectivity (in words) (CB2 cannabinoid receptor [2]) |
| --- | --- | --- |
| CC1=CC[C@@H]2[C@@H](C1)c1c(ccc(C[C@@H]3C[C@@H]4CC[C@]3(C)C4(C)C)c1O)OC2(C)C [Compound 8d, (6aR-trans)-3-(exo-1′,7′,7′-Trimethylbicyclo[2.2.1]hept-2′-ylmethyl)-6a,7,10,10a-tetrahydro-6,6,9-trimethyl-6H-dibenzo[b,d]pyran-1-ol] | nonselective; also recorded: complete loss of subtype selectivities |  |
| CC1=CC[C@@H]2[C@@H](C1)c1c(ccc(C[C@H]3C[C@@H]4CC[C@]3(C)C4(C)C)c1O)OC2(C)C [Compound 8c, (6aR-trans)-3-(endo-1′,7′,7′-Trimethylbicyclo[2.2.1]hept-2′-ylmethyl)-6a,7,10,10a-tetrahydro-6,6,9-trimethyl-6H-dibenzo[b,d]pyran-1-ol] | nonselective; also recorded: complete loss of subtype selectivities |  |
| CC1=CC[C@@H]2[C@@H](C1)c1c(O)cc(C34CC5CC(CC(C5)C3)C4)cc1OC2(C)C [Compound 11, 3-(adamant-1′-yl)-Δ^8-THC] |  | substantial CB1 selectivity |
| CC1=CCC2C(C1)c1c(O)cc(C3C4CC5CC(C4)CC3C5)cc1OC2(C)C (centres unmarked) [adamant-2′-yl analog] |  | CB2 selective |
| CC1=CC[C@@H]2[C@@H](C1)c1c(O)cc([C@H]3C[C@@H]4CC[C@]3(C)C4(C)C)cc1OC2(C)C [Compound 8a, (6aR-trans)-3-(endo-1′,7′,7′-Trimethylbicyclo[2.2.1]hept-2′-yl)-6a,7,10,10atetrahydro-6,6,9-trimethyl-6H-dibenzo[b,d]pyran-1-ol] | no subtype selectivity |  |
